Assay results from patent publication US5256780A, “Pyrimidoindole derivatives and processes for preparation thereof” (Fujisawa Pharmaceutical Co., Ltd., priority 1989, dated 1993).
Read-outs that look alike come from different tables or passages of the source.

System: Bezold-Jarisch reflux
Experiment: Inhibition of Bezold-Jarisch reflux (2-methyl-5-hydroxytryptamine-induced bradycardia in anesthetized rats)
Type: in vivo
Conditions: test compound iv, 5-minutes interval, then 2-methyl-5-hydroxytryptamine 32 μg/kg iv, urethane-anesthetized male Sprague-Dawley rats, bradycardic response
Procedure: Inhibition of Bezold-Jarisch reflux
Male Sprague-Dawley rats weighing 260-350 g were anesthetized intraperitoneally with 1.25 g/kg urethane.
Blood pressure and heart rate were monitored continuously from the left common carotid artery with a pressure transducer. A right femoral vein was cannulated for the intravenous injection (iv) of drugs. The trachea was also cannulated to ease the respiration.
Rats were given a rapid bolus injection of 2-methyl-5-hydroxytryptamine (32 μg/kg, iv) to establish the control bradycardic response. Once the heart rate returned to base line, the rats were given the test compound (iv), followed by 5-minutes interval and another bolus injection of 2-methyl-5-hydroxytryptamine (32 μg/kg, iv).

3,4-dihydro-5-methyl-2-[(5-methyl-1-trityl-1H-imidazol-4-yl)methyl]pyrimido[1,6-a]indol-1 (2H)-one [Example 1]
ED50: 0.56 µg/kg

Cc1[nH]cnc1C(C)N1CCc2c(C)c3ccccc3n2C1=O.Cl (centres unmarked) [Compound 2, 3,4-Dihydro-5-methyl-2-[1-(5-methyl-1H-imidazol-4-yl)ethyl]pyrimido[1,6-a]indol-1(2H)-one hydrochloride]
ED50 (Rattus norvegicus, 5 min, read-out: ED50): 1.5 µg/kg
